Assay results reported in US9611223B2, “3-aryl-5-substituted-isoquinolin-1-one compounds and their therapeutic use” (INSTITUTE OF CANCER RESEARCH: ROYAL CANCER HOSPITAL (THE), priority 2013, dated 2017).

Tests used:
Wnt signalling = assay: Wnt-Luciferase Reporter Assay; type: cell-based; details: DLD1-Wnt-Luc cells, 20-22 hours
Protocol: Wnt-Luciferase Reporter Assay
A Wnt dependent cell line (i.e., DLD1 colorectal adenocarcinoma cell line) was transduced with replication incompetent VSV-g pseudotyped lentiviral particles expressing the firefly luciferase gene under the control of minimal cytomegalovirus (mCMV) promoter and tandem repeats of the TCF/LEF transcriptional response element.
DLD1-Wnt-Luc cells were seeded (5000 cells/well) in a 96-well plate (Greiner Bio-One, cat. no. 655098) in Dubelco's Modified Eagle Medium (DMEM, SFBCO/Invitrogen, cat no. 41965-039) supplemented with Fetal Bovine Serum (FBS, 10%, SFBCO/Invitrogen, cat no. 10108-165). After overnight incubation, the media was replaced with OptiMEM (SFBCO/Invitrogen, cat no. 11058-021) supplemented with FBS (0.5%) and non-essential amino acids (1%, SFBCO/Invitrogen, cat no. 11140-035) and the appropriate putative TNKS inhibitor at a final concentration of 10 μM, 3 μM, 1 μM, 0.30 μM, 0.10 μM, 0.030 μM, 0.010 μM and 0 μM with 1% (v/v) final DMSO in double-triplicate wells. Positive control includes the use of XAV-939 (Maybridge, FisherScientific, 3,5,7,8-tetrahydro-2-[4-(trifluoromethyl)phenyl]-4H-thiopyrano[4,3-d]pyrimidin-4-one, cat. no. RF03920, see: Huang et al., Nature, 2009, Vol. 461, pp. 614-620). Cells were incubated for 20-22 hours before assaying for luciferase (first set of triplicates: Wnt activation) and viability (second set of triplicates: cell survival for data normalisation vs Wnt-activation) using ONE-Glo (Promega, cat. no. E6110) and CellTiter-Glo (Promega, cat. no. G7570) reagents consecutively. The assay was measured using a Victor^2 plate reader. The data were normalised to the DMSO control and were expressed as % Wnt activity as a function of inhibitor dose. Dose response curves used to determine IC50 values were Log transformed and analysed by non-linear regression analysis (variable slope) using Prism (GraphPad Software, Inc).

HT55 cells = assay: Long-Term Clonogenic Assay (HT55 cells); type: cell-based; details: Homo sapiens, 12-14 days, read-out: cell inhibitory SF50 (HT55)
Protocol: Clonogenic Inhibition in DLD1 or HT55 Cells
In order to determine the efficacy of chronic dosing of putative TNKS inhibitors, long term clonogenic or ‘colony formation’ assays were carried out. This included the sparse seeding of cells in a 6-well dish followed by continuous dosing of cells over 12-14 days (depending on relative cell growth). Appropriate cell lines (DLD1 or HT55) were seeded at 500 cells/well in a 6-well dish in DMEM supplemented with FBS. After overnight incubation, cells were treated with the appropriate putative TNKS inhibitor at 10 μM, 3 μM, 1 μM, 0.30 μM, 0.1 μM and 0 μM at 0.2-1% final DMSO concentration (cell line dependent) in DMEM supplemented with 10% FBS (DLD1 cells were dosed in DMEM supplemented with 0.5% FBS). Dosages were carried out in triplicate. Cell media containing compound or DMSO only was replenished every 48 hours. On termination of the assay, plates were read with Cell Titre Glo reagent and luminescence measured on an appropriate plate reader.
The data was normalised to the DMSO control and was expressed as surviving fraction as a function of inhibitor dose. Dose response curves used to determine SF50 values were Log transformed and analysed by non-linear regression analysis (variable slope) using Prism (GraphPad Software, Inc).

IC50 (Wnt signalling)	IC50 (HT55 cells)	SMILES
< 300 nM	< 5000 nM	CN1CCN(Cc2ccc(-c3cc4c(C#N)cccc4c(=O)[nH]3)cc2)CC1 [IQ-002, 3-[4-(4-Methyl-piperazin-1-ylmethyl)-phenyl]-1-oxo-1,2-dihydro-isoquinoline-5-carbonitrile]
< 300 nM	< 5000 nM	CN(C)C1CCN(Cc2ccc(-c3cc4c(C#N)cccc4c(=O)[nH]3)cc2)C1 (centres unmarked) [IQ-011]
< 300 nM	< 5000 nM	CN(C)C1CCN(Cc2ccc(-c3cc4c(C#N)cccc4c(=O)[nH]3)cc2)CC1 [IQ-012]
< 300 nM	< 5000 nM	CN1CCN(Cc2ccc(-c3cc4c(C#N)cc(F)cc4c(=O)[nH]3)cc2)CC1 [IQ-014]
